{
  "source": "patent US11377442B2",
  "about": "“Small molecule agonists and antagonists of NR2F6 activity” (ZANDER THERAPEUTICS, INC., priority 2016, dated 2022)",
  "format_in_all_cases": "cell-based",
  "key": {"[1]": {"system": "HEK293 pGL4", "assay": "Firefly_pGL signal, cmpd/DMSO (pGL4 control cells)", "details": "Homo sapiens"}, "[2]": {"target": "T1, NR2F6 LBD (Homo sapiens, UniProt P10588)", "T1 construct": "expressed in transfected cells", "T1 sequence (P10588 165-393 limits assumed)": "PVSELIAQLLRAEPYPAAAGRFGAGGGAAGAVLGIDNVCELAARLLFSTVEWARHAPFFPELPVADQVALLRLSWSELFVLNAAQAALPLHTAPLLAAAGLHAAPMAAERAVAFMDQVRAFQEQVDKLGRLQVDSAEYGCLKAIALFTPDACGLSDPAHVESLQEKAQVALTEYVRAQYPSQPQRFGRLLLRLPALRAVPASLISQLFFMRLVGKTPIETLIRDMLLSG", "assay": "NR2F6 LBD transient transfection", "details": "LBD", "outline": "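LBD-transfected cells treated at 40, 10, 2 and 0.5 μM (4 replicates); cytotoxicity measured in parallel, normalized to DMSO (0%) and zero signal (100%). Higher concentrations excluded where signal loss reflected toxicity.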"}, "[3]": {"system": "Renilla", "assay": "Renilla signal in NR2F6 agonist screening, cmpd/DMSO", "details": "Renilla, F4"}, "[4]": {"target": "T2, NR2F6 (Homo sapiens, UniProt P10588)", "T2 construct": "expressed in transfected cells; also transient transfection", "T2 sequence (P10588 1-404)": "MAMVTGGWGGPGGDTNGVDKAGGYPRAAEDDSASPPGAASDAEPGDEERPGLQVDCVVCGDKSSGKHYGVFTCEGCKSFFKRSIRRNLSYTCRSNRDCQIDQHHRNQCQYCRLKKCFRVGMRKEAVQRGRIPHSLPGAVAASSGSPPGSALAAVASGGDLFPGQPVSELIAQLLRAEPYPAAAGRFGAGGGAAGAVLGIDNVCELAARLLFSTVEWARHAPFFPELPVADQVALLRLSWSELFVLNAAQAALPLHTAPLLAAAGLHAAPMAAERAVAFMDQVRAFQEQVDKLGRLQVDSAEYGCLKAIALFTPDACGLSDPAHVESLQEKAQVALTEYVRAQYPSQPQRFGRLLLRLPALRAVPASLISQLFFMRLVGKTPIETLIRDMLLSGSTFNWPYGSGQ", "assay": "NR2F6 agonist screening, Firefly signal cmpd/DMSO"}, "[5]": {"details": "read-out: Renilla, F4, cmpd/DMSO (mean)"}, "[6]": {"details": "1% FBS, read-out: Renilla, F4, 1% FBS, cmpd/DMSO (mean)"}, "[7]": {"details": "10% FBS, read-out: Renilla, F4, 10% FBS, cmpd/DMSO (mean)"}},
  "note": "Like-named read-outs stand apart in the source and are kept apart here.",
  "data": [
    {"compound": "C[C@@H]1C[C@H](C)CN([C@H]2CS(=O)(=O)C[C@@H]2S(=O)(=O)c2ccccc2)C1", "note": "[Compound D112]", "values": [
      {"measurement": "fold induction at 0.5 µM", "setting": "[1]; HEK293, 0.5 uM, pGL4, read-out: Firefly pGL4, cmpd/DMSO (mean)", "value": 1},
      {"measurement": "fold induction at 2 µM", "setting": "[1]; HEK293, 2 uM, pGL4, read-out: Firefly pGL4, cmpd/DMSO (mean)", "value": 1.2},
      {"measurement": "fold induction at 10 µM", "setting": "[1]; HEK293, 10 uM, pGL4, read-out: Firefly pGL4, cmpd/DMSO (mean)", "value": 2.2},
      {"measurement": "fold induction at 40 µM", "setting": "[1]; HEK293, 40 uM, pGL4, read-out: Firefly pGL4, cmpd/DMSO (mean)", "value": 2.2},
      {"measurement": "fold induction at 0.5 µM", "setting": "[1]; HEK293, pGL4, 1% FBS, 0.5 uM, read-out: Firefly, pGL4, 1% FBS, cmpd/DMSO (mean)", "value": 1.3},
      {"measurement": "fold induction at 2 µM", "setting": "[1]; HEK293, pGL4, 1% FBS, 2 uM, read-out: Firefly, pGL4, 1% FBS, cmpd/DMSO (mean)", "value": 1.2},
      {"measurement": "fold induction at 10 µM", "setting": "[1]; HEK293, pGL4, 1% FBS, 10 uM, read-out: Firefly, pGL4, 1% FBS, cmpd/DMSO (mean)", "value": 1.7},
      {"measurement": "fold induction at 40 µM", "setting": "[1]; HEK293, pGL4, 1% FBS, 40 uM, read-out: Firefly, pGL4, 1% FBS, cmpd/DMSO (mean)", "value": 1.2},
      {"measurement": "fold induction at 0.5 µM", "setting": "[1]; HEK293, pGL4, 10% FBS, 0.5 uM, read-out: Firefly, pGL4, 10% FBS, cmpd/DMSO (mean)", "value": 1.3},
      {"measurement": "fold induction at 2 µM", "setting": "[1]; HEK293, pGL4, 10% FBS, 2 uM, read-out: Firefly, pGL4, 10% FBS, cmpd/DMSO (mean)", "value": 1},
      {"measurement": "fold induction at 10 µM", "setting": "[1]; HEK293, pGL4, 10% FBS, 10 uM, read-out: Firefly, pGL4, 10% FBS, cmpd/DMSO (mean)", "value": 1.5},
      {"measurement": "fold induction at 40 µM", "setting": "[1]; HEK293, pGL4, 10% FBS, 40 uM, read-out: Firefly, pGL4, 10% FBS, cmpd/DMSO (mean)", "value": 1.3},
      {"measurement": "Firefly LBD, cmpd/DMSO (mean)", "setting": "[2]; 0.5 uM", "value": 1.1},
      {"measurement": "Firefly LBD, cmpd/DMSO (mean)", "setting": "[2]; 2 uM", "value": 1.2},
      {"measurement": "Firefly LBD, cmpd/DMSO (mean)", "setting": "[2]; 10 uM", "value": 1.8},
      {"measurement": "Firefly LBD, cmpd/DMSO (mean)", "setting": "[2]; 40 uM", "value": 1.9},
      {"measurement": "fold induction at 0.5 µM", "setting": "[3]; [5]", "value": 1},
      {"measurement": "fold induction at 2 µM", "setting": "[3]; [5]", "value": 1.1},
      {"measurement": "fold induction at 10 µM", "setting": "[3]; [5]", "value": 1.3},
      {"measurement": "fold induction at 40 µM", "setting": "[3]; [5]", "value": 1.6},
      {"measurement": "fold induction at 0.5 µM", "setting": "[3]; [6]", "value": 1.1},
      {"measurement": "fold induction at 2 µM", "setting": "[3]; [6]", "value": 1.1},
      {"measurement": "fold induction at 10 µM", "setting": "[3]; [6]", "value": 1.4},
      {"measurement": "fold induction at 40 µM", "setting": "[3]; [6]", "value": 2},
      {"measurement": "fold induction at 0.5 µM", "setting": "[3]; [7]", "value": 1},
      {"measurement": "fold induction at 2 µM", "setting": "[3]; [7]", "value": 1},
      {"measurement": "fold induction at 10 µM", "setting": "[3]; [7]", "value": 1.3},
      {"measurement": "fold induction at 40 µM", "setting": "[3]; [7]", "value": 2.1},
      {"measurement": "Firefly F4, cmpd/DMSO (mean)", "setting": "[4]; 0.5 uM", "value": 1.2},
      {"measurement": "Firefly F4, cmpd/DMSO (mean)", "setting": "[4]; 2 uM", "value": 1.9},
      {"measurement": "Firefly F4, cmpd/DMSO (mean)", "setting": "[4]; 10 uM", "value": 2.8},
      {"measurement": "Firefly F4, cmpd/DMSO (mean)", "setting": "[4]; 40 uM", "value": 2.6},
      {"measurement": "F4, Firefly/Renilla for S/B(F4) > 3", "setting": "[4]; 1% FBS, 40 uM", "value": 1.6},
      {"measurement": "Firefly, F4/pGL4 for S/B(F4) > 3", "setting": "[4]; 1% FBS, 40 uM", "value": 2.7},
      {"measurement": "F4, Firefly/Renilla for S/B(F4) > 3", "setting": "[4]; 10% FBS, 40 uM", "value": 2.3},
      {"measurement": "Firefly, F4/pGL4 for S/B(F4) > 3", "setting": "[4]; 10% FBS, 40 uM", "value": 3.7},
      {"measurement": "Firefly, F4, 1% FBS, cmpd/DMSO (mean)", "setting": "[4]; 1% FBS, 0.5 uM", "value": 1.1},
      {"measurement": "Firefly, F4, 1% FBS, cmpd/DMSO (mean)", "setting": "[4]; 1% FBS, 2 uM", "value": 0.9},
      {"measurement": "Firefly, F4, 1% FBS, cmpd/DMSO (mean)", "setting": "[4]; 1% FBS, 10 uM", "value": 1.6},
      {"measurement": "Firefly, F4, 1% FBS, cmpd/DMSO (mean)", "setting": "[4]; 1% FBS, 40 uM", "value": 3.2},
      {"measurement": "Firefly, F4, 10% FBS, cmpd/DMSO (mean)", "setting": "[4]; 10% FBS, 0.5 uM", "value": 1.2},
      {"measurement": "Firefly, F4, 10% FBS, cmpd/DMSO (mean)", "setting": "[4]; 10% FBS, 2 uM", "value": 1.2},
      {"measurement": "Firefly, F4, 10% FBS, cmpd/DMSO (mean)", "setting": "[4]; 10% FBS, 10 uM", "value": 1.5},
      {"measurement": "Firefly, F4, 10% FBS, cmpd/DMSO (mean)", "setting": "[4]; 10% FBS, 40 uM", "value": 5.0}
    ]}
  ]
}
